These results are taken from patent US20240173380A1, “CONNEXIN 43 FOR USE IN THE TREATMENT OF A CANCER TYPE CHARACTERIZED BY THE ACTIVATION OF A MITOGEN-ACTIVATED PROTEIN KINASE” (FUNDACIÓN PROFESOR NOVOA SANTOS, priority 2020, published 2024).

Where a name gives a salt, the structure may show the parent alone.

Holding throughout (assay type): cell-based, human
In assay [1] the test system is A375 melanoma cells (BRAF mutation). Put plainly: Cell proliferation and colony formation (xCELLigence, CCK-8, clonogenic assay). The method, then:
Dojindo's highly water-soluble tetrazolium salt (WST-8) is reduced by dehydrogenase activity in cells to give a yellow-color formazan dye, which is soluble in the tissue culture media. The amount of the formazan dye generated by dehydrogenases is directly proportional to the number of living cells. Equal number of cells (1000-2000 cells) were seeded per triplicate in 96-well plates and cultured in the different conditions. Medium was replaced by 100 μL of fresh medium and 10 μL of CCK-8 reagent was added per well. After an incubation for 1 to 4 h at 37° C., absorbance was measured at 450 nm in a NanoQuant microplate reader Infinite M200 (TECAN). Results were calculated as optical density (OD) 450 nm=OD of sample−OD of blank.
The E8 xCELLigence plates were prepared by addition of 100 μL of complete media to every well. After incubation at 37° C., plates were inserted into the xCELLigence station, and the base-line impedance was measured to ensure that all wells and connections were working. Following harvesting and counting, cells were diluted to the selected seeding density and 100 μl of cells in culture medium was added to each well. For the cell proliferation assays for each condition, 1×10^3-5×10^3 cells/well was seeded into 100 μL of media in the E-Plate L8 (Acea Biosciences). The attachment and proliferation of the cells were monitored every 30 min. Cell proliferation was monitored for 48-72 h. Cell Index at each time point is defined as (Rn−Rb)/15, where Rn is the cell-electrode impedance of the well when it contains cells and Rb is the background impedance of the well with the media alone. For the cell adhesion assays, for each condition, 1×10^3-5×10^3 cells/well was seeded into 100 μL of media in E-Plate L8 (Acea Biosciences). Cell proliferation was monitored for 1 h every 10 sec. The extend of cell adhesion and spreading was monitored every min for 1-3 h. Cell Index at each time point is defined as (Rn−Rb)/15, where Rn is the cell-electrode impedance of the well when it contains cells and Rb is the background impedance of the well with the media alone.
(§1) Colony formation assays were performed by seeding 5×10^3 to 5×10^4 cells per well onto 6-12 well plates and grown for 7-15 days. The culture medium was replaced every 48 h. The cells were washed with warm Saline Solution and fixed with cold 2% PFA for 15 min. Cells were washed with 1×PBS and stained with 0.1% of crystal violet (Sigma-Aldrich) for 15 min. After staining, the cells were washed with distilled water and dried at room temperature. The colonies were quantified by diluting crystal violet in 5% acetic acid and 100 μL of the solution was collected to measure the absorbance at 570 nm using a NanoQuant microplate reader Infinite M200 (TECAN).

The subject of a further assay is A375 cell line. Put plainly: Gap junction intercellular communication: scrape loading and dye transfer. As to conditions: A375 transfected with Cx43 vector vs empty vector (EV). Here is the method:
Cells were seeded on 6 or 12 wells and cultured until 80-100% of confluence and rinsed twice with warm PBS. Lucifer Yellow CH dilithium salt (1 mg/mL) (LY: Cell Projects Ltd© Kent) in PBS was added to the cells and parallel cuts (3 cuts per well) were performed with a surgical blade (Swann-Mortonscalpel®). After 3-5 min at 37° C. cells were washed with PBS and fixed 2% PFA in PBS. LY becomes incorporated by cells along the cut and move from the dye-loaded cells into adjacent ones connected by functional gap junction channels. The areas for LY loading were randomly selected in the central part of wells to obtain the images for quantification. Images were captured with 10× objective using a Nikon Eclipse Ti fluorescent microscope. The constant exposures were used for all images for a given experiment. Ten images per sample were quantified. The score was calculated as the ratio of the number of non-damage LY positive cells at the edge and the number of the LY positive cells outside the edge.
Cells were seeded on 12-wells plated and cultured until 80-100% of confluence. […] The fluorescence emitted was measured at 640/40 nm and 540/40 nm with two photodetectors, the time course of the passage of dye from the injected cell to the adjacent cells was studied.

The next assay concerns A375 tumour cell line. Put plainly: Cellular senescence: SA-β-Gal staining and flow cytometry. Here is the method: The detection of SA-β-Gal activity was measured using the Senescence Cells Histochemical Staining Kit (Sigma-Aldrich). Cells were rinsed with warm PBS and fixed for 7 min at RT with a fixation buffer composed by 2% paraformaldehyde and 0.2% glutaraldehyde. After three washed with PBS, cells were incubated for 6 h or O/N at 37° C. without CO2 in a staining solution containing X-gal. This lactose analogue can be cleaved by β-galactosidase producing a blue insoluble product. Finally, cells were washed with PBS and images were taken using a light microscope.
SA-β-Gal activity was analyzed with the fluorogenic β-Galactosidase substrate di-β-D-galactopyranoside (FDG, Thermo Fisher Scientific), which is hydrolyzed by the endogenous β-galactosidase to fluorescein (FITC). Cells were harvested and incubated in a staining medium (PBS, 4% FBS, 10 mM HEPES, pH 7.2) at 37° C. for 10 min. The β-Galactosidase assay was started by adding warm 2 mM FDG to the cell suspension and after incubating for 3 min at 37° C. in the dark. The reaction was stopped with the addiction of ice-cold staining medium to the cells, which were kept on ice protected from light. […] was used for fluorescein and acquiring 20,000 event per triplicate. Data was analyzed using the FCS Express 6 Flow software.
(A flow cytometer gives signals particle by particle.)

The test system of assay [2] is p53 and p16 in A375 cells. The assay can be described thus: Western blot of senescence biomarkers p53 and p16. Particulars: Cx43 cells vs cells transfected with empty vector. From the text:
(§2) The insoluble fraction was resuspended in lysis buffer (membrane).
(In general: Immunoblotting shows a protein as a band on a membrane.)

The test system of another assay is A375 melanoma cells. Put plainly: Apoptosis assay, PI/YO-PRO-1 double staining, flow cytometry. Here is the method:
Supernatants (died cells) were aspirated and attached cells were harvested. Supernatants and cells were mixed, counted and 1 million cells were resuspended in 1 mL in flow cytometry (FC) buffer. Membrane viability analysis was performed by double staining PI/YO-PRO-1. YO-PRO-1 (Invitrogen) was added to the cells (150 nM) and incubated 10 min in the dark at 4° C. PI (Invitrogen) was added (2 μg/mL) and incubated for 5 min in the dark at 4° C. After the incubation time (PI/YO-PRO) samples were analyzed in a FACs Scalibur acquiring 20,000 event per triplicate. The red fluorescence emitted by PI was detected at 610 nm and the green florescence emitted by YO-PRO was detected at 515 nm. Data was analyzed using the FCS Express 6 Flow software.

Assay [3] concerns HT29 colorectal cancer cells (BRAF mutation). The assay can be described thus: Colony formation assay. As to conditions: HT29 transfected with Cx43 vector vs EV. Here is the method:
as §1

The subject of assay [4] is MDA-MB-231 breast cancer cells (BRAF mutation). Put plainly: Colony formation assay. As to conditions: MDA-MB-231 transfected with Cx43 vector vs EV. Here is the method:
as §1

Assay [5] deals with Sk-Mel-147 melanoma cells (NRAS mutation). Put plainly: Colony formation assay. Particulars: Sk-Mel-147 transfected with Cx43 vector. The method, then:
as §1

Assay [6] relates to cleaved caspase 3 in A375 cells. The assay can be described thus: Cleaved caspase 3 western blot.
From the text: as §2

Assay [7] has as its system A375 cells resistant to BRAF/MEKi (DR). The assay can be described thus: Apoptosis assay (PI/YO-PRO-1) in double resistant cells. Particulars: DR A375 cells transfected with Cx43 vector. Here is the method: The BRAF mutated tumour cell lines A375 (melanoma), SK-Mel-28 (melanoma), MDA-MB-231 (human breast cancer) and HT-29 (human colorectal adenocarcinoma) were also used to test the role of Cx43 in drug resistance. SK-Mel147 (melanoma), NRAS mutated cell line was selected to compare the results with BRAF mutant cell lines. Cells were cultured in Dulbecco's modified Eagle's medium (DMEM) (Lonza) supplemented with 10% fetal bovine serum (FBS) (Gibco, Thermo Fisher Scientific) and 100 U/mL penicillin and 100 μg/ml streptomycin (Gibco, Thermo Fisher Scientific). […] After adding DMEM supplemented with 10% FBS, cells were transferred to falcon tube and counted using the Neubauer chamber method in a light microscope. […]
Supernatants (died cells) were aspirated and attached cells were harvested. Supernatants and cells were mixed, counted and 1 million cells were resuspended in 1 mL in flow cytometry (FC) buffer. […] After the incubation time (PI/YO-PRO) samples were analyzed in a FACs Scalibur acquiring 20,000 event per triplicate. The red fluorescence emitted by PI was detected at 610 nm and the green florescence emitted by YO-PRO was detected at 515 nm. Data was analyzed using the FCS Express 6 Flow software.

For the compound `CC1(C)[C@@H](OC(=O)CCC(=O)O)CC[C@]2(C)[C@H]3C(=O)C=C4[C@@H]5C[C@@](C)(C(=O)O)CC[C@]5(C)CC[C@@]4(C)[C@]3(C)CC[C@@H]12` [CBX, Carbenoloxolone disodium salt, reference compound], the colony formation capacity result in assay [1] (100 μM CBX for 7 days, A375 EV and Cx43-overexpressing cells) is recorded as “No changes were detected in colony formation capacity”.

Consider “Cx43: channel protein Connexin 43, restored in tumour cells with a pIRESpuro2 plasmid containing the human Cx43 sequence”, for which the “dye coupling (GJIC)” value in the assay on A375 cell line is “increased levels of dye coupling compared with control EV”. In assay [1] (A375-Cx43 after 1-2 weeks and 4 months under 1 nM T/100 nM D), the “cell proliferation and colony formation capacity” value was “significantly less cell proliferation and colony formation capacity”. Besides, the cells detected entry in assay [1] (A375-Cx43 after 2 weeks under 1 nM T/100 nM D) was “Almost no cells were detected”. Further, the proliferation rate result in assay [1] (A375 transfected with Cx43 vector vs empty vector, xCelligence, colony formation, CCK8) is on record as “significant reduction in the proliferation rate”. The “capacity to form colonies” value in [1] (A375 with Cx43 vector plus different concentrations of dabrafenib and trametinib for 7 days) was “significantly decreases the capacity to form colonies”; in [3], “significantly decreases the capacity to form colonies”; in assay [4], “significantly decreases the capacity to form colonies”; in [5], “significantly decreases the capacity to form colonies”. In addition, in the assay on A375 tumour cell line (A375-Cx43 vs A375-EV under 100 nM dabra and 1 nM trame for 5 days), the “cellular senescence (flow cytometry, β-Gal staining)” value is listed as “enhanced cellular senescence”. In addition, the “cellular senescence (ß-Galactosidase activity)” value with A375 tumour cell line (Cx43 re-expression by vector in A375, no drug) is given as “increases cellular senescence”. Moreover, the “levels of senescent biomarkers p53 and p16” value in [2] is “higher levels of the senescent biomarkers p53 and p16 than control cells”. Also, the apoptosis result in the assay on A375 melanoma cells (A375-Cx43 under BRAF/MEKi treatment (100 nM dabra, 1 nM trame, 5 days)) is “increases cellular senescence and apoptosis”. Also, in the assay on A375 melanoma cells (Cx43 overexpressing A375 vs empty vector), the “basal percentage of early apoptotic cells” value is “significantly higher”. The “levels of cleaved caspase-3” value in assay [6] (Cx43 overexpression in combination with BRAF/MEKi (1/100 nM T/D, 5 days)) is recorded as “showed the highest levels of cleavage caspase-3”; in assay [6] (Cx43 overexpression with BRAF/MEKi (T/D 4 days) followed by 24 h 3.5 μM NAV), “showed the highest levels of cleavage caspase-3”. The “MFI ratio of apoptotic cells” value in assay [7] is reported as “increases the MFI ratio of apoptotic cells”.
